Test results from ChEMBL document CHEMBL1201862, “PubChem BioAssay data set” (2004).
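Each compound was tested at five concentrations against cells in 96-well plates for 48 hours. GI50: concentration for 50% inhibition of growth.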 Calls of active or inactive are those of the source. Cut-off read from the data, not from the text of the source: active = GI50 up to about 1.1 µM and inactive = higher.

Columns and labels:
Experiment in all cases: NCI tumour cell line growth inhibition, 48 h
[1] = test system: U-251
[2] = test system: ACHN
[3] = test system: NCI-H460
[4] = test system: UACC-257
[5] = test system: Malme-3M
[6] = test system: NCI-H23
[7] = test system: MOLT-4
[8] = test system: HCT-116
[9] = test system: IGROV-1
[10] = test system: OVCAR-3
[11] = test system: 786-0
[12] = test system: SNB-75
[13] = test system: NCI-H522
[14] = test system: OVCAR-8
[15] = test system: SK-MEL-2
[16] = test system: SW-620
[17] = test system: CAKI-1
[18] = test system: OVCAR-5
[19] = test system: NCI/ADR-RES

Measured: GI50

CCCCNc1nc(C#N)c(N)s1
inactive: [1] > 100 µM | [2] > 100 µM | [3] > 100 µM | [4] > 100 µM | [5] > 100 µM | [6] > 100 µM | [7] > 100 µM | [8] > 100 µM | [9] > 100 µM | [10] > 100 µM | [11] > 100 µM | [12] > 100 µM | [13] > 100 µM | [14] > 100 µM | [15] > 100 µM | [16] > 100 µM | [17] > 100 µM | [18] > 100 µM

CN(C)CC[N+]1=Nc2cccc3cccc(c23)N1
inactive: [1] > 68.5 µM | [2] 28.1 µM | [3] 16.9 µM | [4] > 100 µM | [5] > 100 µM | [6] > 77.3 µM | [7] 21.6 µM | [8] 3.86 µM | [9] 61.8 µM | [10] > 100 µM | [11] 55.1 µM | [12] > 76.6 µM | [13] 33.7 µM | [14] 43.6 µM | [15] > 100 µM | [16] 20.2 µM | [17] 31 µM | [18] > 94 µM

CCOC(=O)C(=Cc1cc(OC)ccc1OC)C(=O)OCC
inactive: [1] 4.79 µM | [2] 11.9 µM | [3] 30.2 µM | [5] 10.9 µM | [6] 3.03 µM | [7] 5.89 µM | [8] 14.4 µM | [9] 23.8 µM | [10] 10.7 µM | [11] 3.56 µM | [12] 1.67 µM | [13] 3.66 µM | [14] 4.72 µM | [15] 4.75 µM | [16] 3.52 µM | [17] 13.6 µM | [18] 6.27 µM

C1CC[N+]23CCCC[N+]2(C1)CCCC3 (stereo not drawn)
inactive: [1] > 100 µM | [2] > 100 µM | [3] > 100 µM | [4] > 100 µM | [5] > 100 µM | [6] > 100 µM | [7] > 100 µM | [8] > 100 µM | [9] > 100 µM | [10] > 100 µM | [11] > 100 µM | [12] > 100 µM | [13] > 100 µM | [14] > 100 µM | [15] > 100 µM | [16] > 100 µM | [17] > 100 µM | [18] > 100 µM

CN(CCO)c1nc2c(c(=O)[nH]1)CNCC2
inactive: [1] > 100 µM | [2] > 100 µM | [3] > 100 µM | [4] > 100 µM | [5] > 100 µM | [6] > 100 µM | [7] > 100 µM | [8] > 100 µM | [9] > 100 µM | [10] > 100 µM | [11] > 100 µM | [12] 32.8 µM | [13] > 100 µM | [14] > 100 µM | [15] > 100 µM | [16] > 100 µM | [17] > 100 µM | [18] > 100 µM

Cc1ccccc1-n1c(=O)sc2c(=O)n(-c3ccccc3)c(=S)[nH]c21
inactive: [1] > 100 µM | [2] > 100 µM | [3] > 100 µM | [4] > 100 µM | [5] > 100 µM | [6] > 100 µM | [7] > 100 µM | [8] > 100 µM | [9] > 100 µM | [10] > 100 µM | [11] > 100 µM | [12] > 100 µM | [13] 42.6 µM | [14] > 100 µM | [15] > 100 µM | [16] > 100 µM | [17] > 100 µM | [18] 95.5 µM

CN1CCN(c2ccc3nc(C4=C(O)C(=O)[C@@H]5C(=C4O)N=C(CO)N5C)[nH]c3n2)CC1
inactive: [1] 41.4 µM | [2] > 100 µM | [3] > 100 µM | [4] > 100 µM | [5] > 100 µM | [6] > 100 µM | [7] > 100 µM | [19] > 100 µM | [8] 94.2 µM | [9] > 100 µM | [10] 91 µM | [11] > 100 µM | [12] 97.3 µM | [13] 64.3 µM | [14] 61.1 µM | [16] > 100 µM | [17] > 100 µM | [18] > 100 µM

COC(=O)C(CC(=O)Nc1ccc(Cl)c(Cl)c1)C(=O)C(=O)Nc1ccc(Cl)c(Cl)c1 (stereo not drawn)
inactive: [1] > 100 µM | [2] > 100 µM | [3] > 100 µM | [4] > 100 µM | [5] > 100 µM | [6] > 100 µM | [7] 94.6 µM | [8] > 100 µM | [9] > 100 µM | [10] > 100 µM | [11] > 100 µM | [12] > 100 µM | [13] > 100 µM | [14] > 100 µM | [15] > 100 µM | [16] > 100 µM | [17] > 100 µM | [18] > 100 µM
